Measured values published in ChEMBL document CHEMBL1137326, “Cyclic MrIA: a stable and potent cyclic conotoxin with a novel topological fold that targets the norepinephrine transporter” (J Med Chem, 2006).

Key:
trypsin = test: Stability against cleavage by trypsin after 24 hrs by enzymatic digestion assay; assay type: ADME; conditions: human, read-out: Activity
[1] = target: Sodium-dependent noradrenaline transporter (Homo sapiens, UniProt P23975); test: Displacement of [3H]nisoxetine from human NET in COS7 cells; assay type: cell-based, COS-7
Sequence of Sodium-dependent noradrenaline transporter (P23975 whole entry): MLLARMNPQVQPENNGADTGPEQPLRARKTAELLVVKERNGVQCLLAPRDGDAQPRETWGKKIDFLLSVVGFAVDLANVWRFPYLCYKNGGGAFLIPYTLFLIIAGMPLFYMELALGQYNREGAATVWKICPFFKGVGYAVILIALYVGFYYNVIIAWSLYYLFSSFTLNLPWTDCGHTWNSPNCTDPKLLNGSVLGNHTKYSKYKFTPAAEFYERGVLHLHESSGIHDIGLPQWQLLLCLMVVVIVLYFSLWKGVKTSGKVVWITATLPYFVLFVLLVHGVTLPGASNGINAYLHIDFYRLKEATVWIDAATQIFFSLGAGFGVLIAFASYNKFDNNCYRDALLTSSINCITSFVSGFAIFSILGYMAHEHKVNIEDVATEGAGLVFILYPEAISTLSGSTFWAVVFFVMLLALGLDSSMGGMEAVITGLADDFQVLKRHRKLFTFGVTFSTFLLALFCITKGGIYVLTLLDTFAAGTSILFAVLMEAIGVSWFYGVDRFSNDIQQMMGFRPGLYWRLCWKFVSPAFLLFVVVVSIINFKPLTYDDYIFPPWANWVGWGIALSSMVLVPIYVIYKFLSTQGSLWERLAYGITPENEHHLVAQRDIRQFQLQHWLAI

`CC(C)C[C@@H]1NC(=O)[C@H](CCCCN)NC(=O)[C@H](Cc2ccc(O)cc2)NC(=O)CNC(=O)C2CSSCC(NC1=O)C(=O)N[C@@H](Cc1c[nH]cn1)C(=O)N1C[C@H](O)C[C@H]1C(=O)N[C@H](C(=O)O)CSSC[C@H](NC(=O)[C@@H](NC(=O)CNC(=O)[C@@H](N)CC(N)=O)C(C)C)C(=O)N2` (some centres not stated) showed a remaining at 24 h (trypsin) of less than 55% and an EC50 [1] of 1820 nM.
